From article PMC8537897, “Design, Synthesis and Biological Evaluation of Aromatase Inhibitors Based on Sulfonates and Sulfonamides of Resveratrol” (Pharmaceuticals, 2021)
Like-named read-outs stand apart in the source and are kept apart here.

How the values were obtained:
human aromatase = target: T1, human aromatase (Homo sapiens, UniProt P11511); assay: Aromatase inhibition, fluorimetric assay kit (Aromatase-CYP19A Inhibitor Screening kit, BioVision); format: biochemical
T1 construct: purchased BioVision, Milpitas, CA, USA
T1 sequence (P11511 1-503): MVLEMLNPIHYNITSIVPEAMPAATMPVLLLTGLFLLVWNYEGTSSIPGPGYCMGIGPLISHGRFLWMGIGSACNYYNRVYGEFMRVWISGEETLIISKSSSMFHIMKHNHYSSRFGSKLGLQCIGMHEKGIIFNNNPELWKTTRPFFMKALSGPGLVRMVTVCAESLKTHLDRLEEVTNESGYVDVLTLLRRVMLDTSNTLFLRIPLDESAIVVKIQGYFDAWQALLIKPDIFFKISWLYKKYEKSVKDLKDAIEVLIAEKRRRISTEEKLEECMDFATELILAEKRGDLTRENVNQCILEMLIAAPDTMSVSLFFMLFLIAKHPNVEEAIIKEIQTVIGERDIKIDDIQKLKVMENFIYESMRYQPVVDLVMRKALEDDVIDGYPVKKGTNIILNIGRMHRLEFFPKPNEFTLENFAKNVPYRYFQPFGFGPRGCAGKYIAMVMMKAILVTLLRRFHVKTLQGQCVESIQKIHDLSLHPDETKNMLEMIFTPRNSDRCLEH
Protocol: The activity was measured each minute for 60 min and the value obtained for each compound after 10 min was chosen to calculate the percentage of the aromatase inhibition.
The aromatase inhibitory activity was determined using a commercial fluorimetric assay kit (Aromatase-CYP19A Inhibitor Screening kit, BioVision, Milpitas, CA, USA), as reported elsewhere. The assay utilizes a fluorogenic aromatase substrate that is converted into a highly fluorescent metabolite detected in the visible range (Ex/Em 488/527 nm). […] During the incubation, the Aromatase Substrate/NADP+ mixture was prepared, and the reaction was started by adding 30 µL of this solution to each well (aside from the background control), reaching a final reaction volume of 100 µL/well. The fluorescence emission (527 nm) was measured immediately (within 1 min) by means of a fluorometer equipped with a 488 nm filter (GloMax®-Multi Detection System, Promega, Madison, WI, USA) and afterwards monitored for 60 min. […] The assay was performed in the same experimental conditions used for the initial screening of compounds. Dose–response curves were fitted with GraphPad Prism 5.0 (GraphPad Software, San Diego, CA, USA).

[1] = Chemical stability by RP-nano-LC at 37 °C; format: physicochemical; details: 72 h, 100 µg/mL; for Chemical stability, basic conditions: 0.1 mM sodium hydroxide solution pH 9, 37 °C; for Chemical stability, acidic conditions: 10 mM hydrochloric acid buffer pH 2.0, 37 °C
Source text: The results were compared with corresponding sulfonamides 2b–c and 2j. […] Advantages including low consumption of mobile and stationary phases and minimal sample volumes make this analytical tool more cost-effective and eco-friendlier with respect to the conventional HPLC. In addition, the reduction in particle diameter and the use of short chromatographic capillary column allow rapid analyses in isocratic elution mode.
Due to the low solubility of some compounds in pure water, the study was performed in an aqueous solution containing ACN/H2O as mobile phase. These conditions led to the chromatographic separation of each compound within 6 min. […] The analyses were performed with a nano-LC apparatus at appropriate intervals for 72 h, maintaining the prepared samples at a temperature of 37 °C.
Detection wavelength was set at 206 nm, and data were collected using ClarityTM Advanced Chromatography Software (Data Apex Ltd., Prague, Czech Republic).
To reduce the flow rate from µ- to nL/min, the HPLC pump delivering MeOH continuously and the injector were connected to a passive split-flow system. For this purpose, both the HPLC pump and injection valve were joined to a stainless-steel T-piece (Vici, Valco, Houston, TX, USA) by means of 500 µm id stainless steel tubes with lengths of 50 and 5 cm, respectively. The third entrance of the T-piece was connected to the MeOH reservoir of the pump through a fused silica capillary (50 µm id × 50 cm), achieving continuous recycling of the organic solvent. To minimize the dead volume and consequently reduce the band broadening effect, the capillary column was directly inserted into the modified injector, which was used for both sample loading and mobile phase reservoir. Samples and mobile phases were introduced into the capillary column through the injection valve by filling the loop with the sample solutions, switching the valve for the appropriate time, and then flushing the loop with the mobile phase. The analysis started immediately after positioning the injector device in the injection mode. […] In the optimized conditions, the flow rate of the column was about 450 nL/min. Nano-LC experiments were performed in uncoated fused silica capillaries (100 μm internal diameter) from Composite Metal Services, Hallow, UK), packed in our laboratory following the slurry packing procedure as described previously. The capillary column was packed with ChromSpher C18, 3 μm particle size (Varian, Palo Alto, CA, USA) for 15 cm.
Chromatographic conditions and standards preparation were as follows: the nano-LC analyses were performed in the capillary column employing as mobile phase a mixture of ACN/H2O ([…]) containing a 10 mM sodium hydrocarbonate buffer, pH 8.5. […]

[2] = test system: MCF7 breast cancer cell line; assay: Cell metabolic activity / viability (MTT assay) on MCF7; format: cell-based, human; details: for IC50: Homo sapiens, MTT, tested 0 to 500 µM;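 for all read-outs here: MTT optical density read-out in human MCF7 cells, normalised to DMSO vehicle-treated cells as 100%, with IC50 derived from fitted concentration–response curves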
Protocol: Human skin fibroblasts (HFF-1, CVCL_3285) and human breast cancer MCF7 (HTB-22™, CVCL_0031) were purchased from ATCC and maintained in Dulbecco’s modified Eagle’s medium (DMEM) high glucose (EuroClone, Milan, Italy) supplemented with 10% of fetal bovine serum (FBS) and 1% of penicillin/streptomycin (Gibco—Thermo Fisher Scientific, MD, USA).
Cell metabolic activity of HFF-1 and MCF7 cells was assessed by MTT (3-(4,5-Dimethylthiazol-2-yl)-2,5-Diphenyltetrazolium Bromide) test (Sigma Aldrich, Milan, Italy). […] After the established exposure times, cells were incubated with MTT (0.5 mg/mL) and the optical density was measured as reported elsewhere [63]. Results were expressed as the percentage of cells in the presence of vehicle (DMSO) set as 100% and each experiment was performed in triplicate (n = 3). Concentration–response curves and IC50 were fitted and calculated with GraphPad Prism 5.0 (GraphPad Software, San Diego, CA, USA).

| Compound | inhibition at 1 µM (human aromatase) | IC50 (human aromatase; tested at concentrations from 0.01 to 100 μM, mean of triplicate determinations) | Chemical stability, basic conditions [1] | Chemical stability, acidic conditions [1] | IC50 ([2]; MCF7, 24 h, 24 h, read-out: MCF7 Cells IC50 24 h) | IC50 ([2]; MCF7, 72 h, 72 h, read-out: MCF7 Cells IC50 72 h) | Viability (% of control) - 24 h ([2]; MCF7, 10 µM, 24 h) | Viability (% of control) - 72 h ([2]; MCF7, 10 µM, 72 h) | Viability (% of control) - 24 h ([2]; MCF7, 25 µM, 24 h) | Viability (% of control) - 72 h ([2]; MCF7, 25 µM, 72 h) | Viability (% of control) - 24 h ([2]; MCF7, 50 µM, 24 h) | Viability (% of control) - 72 h ([2]; MCF7, 50 µM, 72 h) | Viability (% of control) - 24 h ([2]; MCF7, 100 µM, 24 h) | Viability (% of control) - 72 h ([2]; MCF7, 100 µM, 72 h) | Viability (% of control) - 24 h ([2]; MCF7, 250 µM, 24 h) | Viability (% of control) - 72 h ([2]; MCF7, 250 µM, 72 h) | Viability (% of control) - 24 h ([2]; MCF7, 500 µM, 24 h) | Viability (% of control) - 72 h ([2]; MCF7, 500 µM, 72 h) |
| --- | --- | --- | --- | --- | --- | --- | --- | --- | --- | --- | --- | --- | --- | --- | --- | --- | --- | --- |
| O=S(=O)(Cc1ccccc1)Oc1ccc(/C=C/c2ccccc2)cc1 [1j, 4-[(E)-2-Phenylvinyl]phenyl phenylmethanesulfonate] | 100% | 2.21 µM | highly degraded because of their precipitation in the basic solution | stable over the entire range of time | > 250 µM | > 250 µM | 85.47 ± 6.41 % of control | 96.53 ± 7.12 % of control | 86.33 ± 14.64 % of control | 95.30 ± 7.88 % of control | 70.06 ± 3.80 % of control | 87.57 ± 5.26 % of control | 74.91 ± 9.24 % of control | 72.67 ± 3.46 % of control | 51.84 ± 3.08 % of control | 69.54 ± 4.11 % of control | 38.88 ± 5.23 % of control | 46.31 ± 4.73 % of control |
| O=S(=O)(Cc1ccccc1)Nc1ccc(/C=C/c2ccccc2)cc1 [2j, 1-Phenyl-N-{4-[(E)-2-phenylvinyl]phenyl}methanesulfonamide] | – | – | highly degraded because of their precipitation in the basic solution | stable over the entire range of time | – | – | – | – | – | – | – | – | – | – | – | – | – | – |
